Measurements: patent US8987211B2, “Therapeutic peptides and use thereof against huntington's disease” (Centre National de la Recherche Scientifique (CNRS), priority 2011, dated 2015)
Entries after “also recorded” stand apart in the source; their conditions may differ. No end group written: not given here.

B1: QQLFRTPPPELLQTLTAVGGIGQLTAAKEESGGRSRSGSIVELIAGGG SSCSPVLSRKQKGKVLLGEEEALEDDSESRSDVSSSALTASVKDEISGELAAS SGVSTPGSAGHDIITEQPRSQHTLQADSVDLASCDLTSSATDGDEEDILSHSSS QVSAVPSDPAM (protein)
chain: QQLFRTPPPELLQTLTAVGGIGQLTAAKEESGGRSRSGSIVELIAGGGSSCSPVLSRKQKGKVLLGEEEALEDDSESRSDVSSSALTASVKDEISGELAASSGVSTPGSAGHDIITEQPRSQHTLQADSVDLASCDLTSSATDGDEEDILSHSSSQVSAVPSDPAM
modifications: Pep4

Key:
[1] = tested on: GFP-hHtt171aa-136Q (GFP-polyQ-hHtt protein); assay: Cotransfection in HeLa cells, polyQ-hHtt aggregation visualised by anti-GFP immunodetection; assay type: cell-based, human; details: cotransfection of equivalent quantities of vectors, Myc- or Cherry-tagged peptide
Procedure: Various peptides contained in the 548aa of the human Huntingtin N-terminal fragment have been cloned by Gateway in expression vectors in pcDNA type cultured HeLa cells. Each peptide was tagged either by Myc or by Cherry at its N-terminal end. These various peptides were tested by cotransfection in HeLa cells in the presence of a pcDNA vector expressing a GFP-polyQ-hHtt protein (see FIG. 5). In these experiments, the polyQ-hHtt protein tested corresponded to an hHtt protein covering 171 aa and containing an extended polyQ with a GFP tag at its N-ter end (GFP-hHtt^171aa-136Q). The HeLa cells were cultured in 6-well boxes and transfected by 1.5 μg of total DNA, using JetPei (Qbiogene) reagent. Equivalent quantities of expression vectors (polyQ protein and peptides) are used for the cotransfections. When necessary, pBluescript is used to balance the quantity of DNA. Aggregation of GFP-hHtt^171aa-136Q is visualised by immunodetection with an anti-GFP antibody (see FIG. 5). This protein forms cytoplasmic aggregates (see FIG. 5A).

[2] = tested on: GFP-hHtt171aa-136Q aggregates; assay: Quantification of aggregates by filtration, HeLa cells; assay type: cell-based, human; details: cellulose acetate membrane, anti-GFP, FIG. 5B
Procedure: Protein extracts were obtained according to (Sittler et al., Mol Cell. 1998) with the following modifications: after transfection, the cell pellets are treated with DNase and resuspended in 150 μl 1% SDS and 50 mM DTT in PBS. The samples are boiled for 5 minutes. Two 150 μL aliquots corresponding to independent experiments were filtered together and each point was reproduced 3 times.
The samples were filtered on a cellulose acetate membrane ([…], Schleicher and Schuell) using a Biorad Dot-blot apparatus. The membranes were then subjected to immunodetection with an antibody, either anti-GFP polyclonal for the HeLa cells (Invitrogen, 1:5000) or anti-HA polyclonal for the salivary glands (SC805, Santa-Cruz, 1:200) in order to visualise the aggregates The aggregates are then detected using a secondary anti-rabbit antibody coupled with HRP (horseradish peroxidase, Jackson 1:50 000). The immunoreagent spots are detected with an […] substrate (ECL, Roche) and the quantifications carried out using Image J (see FIG. 5B).

[3] = tested on: HA-hHtt171aa-136Q protein; assay: polyQ-hHtt aggregation in Drosophila salivary glands (MS1096-Gal4 driver, immunolabelling); assay type: in vivo; details: third instar larvae, anti-HA immunolabel
From the text: The pep4 and pep42 peptides identified as inhibitors of polyQ-hHtt aggregation in HeLa cells were cloned using the Gateway technique in Drosophila pUASt expression vectors, allowing the expression of N-terminal 6Myc- or GFP-tagged peptides.
Transgenic flies expressing these peptides were constructed by injecting vectors in Drosophila embryos. The UAS/Gal4 system (Brand and Perrimon, Development 1993) was used to express these peptides at specific times and in specific tissues, in the presence of an HA- (hemagglutinin) tagged UAS-polyQ-hHtt vector.
The MS1096-Gal4 driver was used to express the HA-hHtt^171aa-136Q protein (detected by an anti-HA antibody) in the salivary glands, in the absence or presence of the GFP-pep42 peptide. […] Salivary glands from dissected third instar larvae were immunolabelled. The glands are fixed for 20 minutes in PBS with 3.7% paraformaldehyde (PFA) and 0.1% Triton then washed in PBS/0.1% Triton. The glands were incubated with the antibodies (anti-HA, then Cy3 conjugate antibody) with 1% BSA.

[4] = tested on: UAS-hHtt67aa-98Q or UAS-hHtt548aa-128Q; assay: Eye depigmentation and degeneration in flies expressing polyQ-hHtt (gmr-Gal4); assay type: in vivo, Drosophila; details: 10-day old females, 29° C., polyQ-hHtt (67aa or 548aa)
Procedure: (§1) The eye depigmentation and degeneration phenotypes are analysed in 10-day old females expressing either UAS-hHtt^67aa-98Q or UAS-hHtt^548aa-128Q controlled by the gmr-Gal4 driver, after transfer at 29° C. from the embryogenesis stage (see FIG. 6b, to be compared with the wild flies shown on FIG. 6a). Flies expressing other genes involved in polyQ diseases (UAS-SCA1-polyQ or UAS-SCA3-polyQ) were also analysed (FIG. 6d).

[5] = tested on: UAS-SCA1-polyQ or UAS-SCA3-polyQ; assay: Eye degeneration in flies expressing other polyQ disease genes; assay type: in vivo, Drosophila
Procedure: as §1

hHtt548aa-128Q protein [6] = assay: Axonal transport, fixed larvae (OK6-Gal4; UAS-NPY-GFP); assay type: in vivo, Drosophila
Procedure: (§2) To test the effect of polyQ-hHtt on axonal transport, the fate of vesicles expressing Neuropeptide Y (NPY) labelled with GFP (NPY-GFP) was monitored, either after dissection and fixation of the larvae, or by real-time microscopy in order to monitor vesicular transport in the motor neurons.
The nervous system of OK6-Gal4 larvae which express vesicles containing NPY-GFP (OK6-Gal4; UAS-NPY-GFP) was dissected and fixed as previously in 3.7% PFA. Incubations with the antibodies and washing are carried out in PBS, 0.3% Triton. Expression of normal Htt^548aa-0Q has no effect on the vesicles which remain numerous and evenly distributed along the axon. Normal Htt, detected by an anti-Htt HU-4C8 antibody (Chemicon, 1:750), lies along the axon and cannot be detected at the neuromuscular junctions (NMJs). Expression of the hHtt^548aa-128Q protein leads to the formation of aggregates along the axons and to abnormal accumulation of the protein at the NMJs. We observe a decrease in the total number of vesicles and their accumulation, especially at the aggregates. In all cases, the vesicles reach the NMJs.

hHtt548aa-128Q protein [7] = assay: Axonal vesicular transport by real-time microscopy in larva motor neurons; assay type: in vivo, Drosophila; details: segments A3 to A4
Procedure: as §2
For this examination, OK6-Gal4; UAS-NPY-GFP larvae were anaesthetised with ether for 2 minutes and positioned with the ventral side upwards between slide and slip cover in polymerised 1% agarose, for direct visualisation using fluorescence microscopy with a 63× objective, to monitor the movement of the vesicles between segments A3 and A4. A film of 100 photographs is taken every 280 ms. For each film, 20 vesicles were analysed with Image J (manual vesicle tracking plugin developed by F. Cordelières, Institut Curie, Orsay, France). Vesicles with an instantaneous speed of less than 0.01 μm/s are defined as having paused. The mean speed is calculated as being the total distance traveled irrespective of the vesicle direction (anterograde or retrograde) divided by the total estimated time during which the vesicle is monitored. While expression of the hHtt^548aa-128Q protein leads to an increase in the pause time of vesicles and reduces their speed, the presence of pep42 rescues both the vesicle pause time and speed.

[8] = tested on: OK6-Gal4; UAS-NPY-GFP; UAS-hHtt548aa-128Q larvae; assay: Larval locomotion; assay type: in vivo, Drosophila; details: larvae expressing hHtt548aa-128Q
[9] = tested on: GFP-P1 (first 98 aa with no polyQ domain); assay: Co-immunoprecipitation in cotransfected HeLa cells; assay type: binding, human; details: Cherry-pep42, GFP-P1, anti-GFP immunoprecipitation
Procedure: (§3) This assumption was tested by co-immunoprecipitation experiments using HeLa cells cotransfected by GFP-hHtt^171aa-136Q or by GFP-P1 (corresponding to the first 98 aa with no polyQ domain), in the presence of Cherry-pep42. A G/A-agarose protein resin binding an anti-GFP was used to immunoprecipitate the GFP-hHtt^171aa-136Q protein or the GFP-P1 peptide and to co-immunoprecipitate the Cherry-pep42, visualised by an anti-cherry by western blot.

GFP-hHtt171aa-136Q = assay: Co-immunoprecipitation in cotransfected HeLa cells; assay type: binding, human; details: Cherry-pep42, anti-GFP immunoprecipitation, anti-cherry western blot
Procedure: as §3

[10] = molecular target: T1, first 17 amino acids before the polyQ domain of the human Htt protein (Homo sapiens, UniProt P42858); assay: Co-immunoprecipitation with first 17 amino acids of Htt; assay type: binding
T1 construct: using the first 17 amino acids before the polyQ domain of the human Htt protein; expressed in transfected cells; host or cells: HeLa cells (inferred from 'the same experiments')
Procedure: as §3

polyQ-hHtt = assay: Viability and survival of adult flies affected by polyQ-hHtt; assay type: in vivo, Drosophila; details: summary statement, no example
[11] = tested on: polyQ-hHtt protein, N17 region (the first 17 aa); assay: Interference with nucleation step of polyQ-hHtt aggregation; set-up: species or system human; details: summary statement, no example
GFP-polyQ-hHtt (Q136) = assay: Activity in HeLa cells, aggregate percentage by GFP signal; assay type: cell-based, human; details: increasing quantity of synthetic peptide added to the culture medium, FIG. 7c
From the text: HeLa cells are transfected with: • 1—GFP-polyQ-hHtt (Q136), • 2—GFP-polyQ-hHtt co-transfected with a vector expressing Pep42-TAT, or • 3—GFP-polyQ-hHtt in the presence of an increasing quantity of Pep42-TAT synthetic peptide added to the culture medium.
FIG. 7c corresponds to the aggregate percentage identified by the GFP signal related to the polyQ-hHtt chain, in the presence of an increasing quantity of fusion peptide.

Chain of hHtt548aa-128Q protein (P42858 with tags, fused parts or gaps limits assumed): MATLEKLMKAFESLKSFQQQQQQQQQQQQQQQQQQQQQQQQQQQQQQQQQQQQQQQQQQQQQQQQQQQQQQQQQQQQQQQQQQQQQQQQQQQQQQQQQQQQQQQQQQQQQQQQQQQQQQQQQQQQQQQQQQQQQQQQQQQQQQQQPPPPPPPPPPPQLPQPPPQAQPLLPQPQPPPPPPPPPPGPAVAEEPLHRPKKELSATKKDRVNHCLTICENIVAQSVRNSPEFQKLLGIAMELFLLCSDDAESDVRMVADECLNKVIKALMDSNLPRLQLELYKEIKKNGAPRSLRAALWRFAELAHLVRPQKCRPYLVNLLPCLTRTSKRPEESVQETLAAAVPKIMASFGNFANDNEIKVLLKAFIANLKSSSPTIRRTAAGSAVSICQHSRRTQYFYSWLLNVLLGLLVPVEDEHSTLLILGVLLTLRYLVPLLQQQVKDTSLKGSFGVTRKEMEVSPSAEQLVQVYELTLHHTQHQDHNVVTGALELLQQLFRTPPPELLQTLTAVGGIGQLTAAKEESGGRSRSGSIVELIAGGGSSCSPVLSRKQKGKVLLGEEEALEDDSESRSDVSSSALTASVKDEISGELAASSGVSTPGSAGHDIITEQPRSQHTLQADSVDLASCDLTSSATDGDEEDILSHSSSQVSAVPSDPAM
Chain of GFP-hHtt171aa-136Q (GFP-polyQ-hHtt protein) (P42858 with tags, fused parts or gaps limits assumed): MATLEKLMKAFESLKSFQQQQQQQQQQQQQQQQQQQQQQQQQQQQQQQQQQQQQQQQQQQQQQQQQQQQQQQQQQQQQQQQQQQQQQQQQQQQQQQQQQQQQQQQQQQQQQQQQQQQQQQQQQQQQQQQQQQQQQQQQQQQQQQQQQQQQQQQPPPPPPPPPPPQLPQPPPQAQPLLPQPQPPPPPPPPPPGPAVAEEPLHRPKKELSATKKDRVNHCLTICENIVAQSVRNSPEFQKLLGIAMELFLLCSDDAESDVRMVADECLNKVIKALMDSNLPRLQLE
Chain of GFP-hHtt171aa-136Q aggregates (P42858 with tags, fused parts or gaps limits assumed): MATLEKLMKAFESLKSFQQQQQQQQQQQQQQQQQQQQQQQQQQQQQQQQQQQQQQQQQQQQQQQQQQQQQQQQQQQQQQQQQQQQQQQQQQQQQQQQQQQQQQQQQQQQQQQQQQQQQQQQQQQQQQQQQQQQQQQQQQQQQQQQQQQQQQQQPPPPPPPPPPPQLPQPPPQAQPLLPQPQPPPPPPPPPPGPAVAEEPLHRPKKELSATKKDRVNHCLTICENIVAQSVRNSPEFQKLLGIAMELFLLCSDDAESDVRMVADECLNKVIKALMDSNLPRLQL
Chain of GFP-P1 (first 98 aa with no polyQ domain) (P42858 with tags, fused parts or gaps DEL18-38 limits assumed): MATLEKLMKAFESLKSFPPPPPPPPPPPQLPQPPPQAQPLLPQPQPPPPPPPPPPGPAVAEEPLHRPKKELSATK

Row | Molecule | aggregation of GFP-hHtt171aa-136Q (polyQ-hHtt) in HeLa cells [1] | quantification of aggregates by filtration [2] | aggregation of polyQ-hHtt in salivary glands [3] | eye depigmentation and degeneration phenotype [4] | eye degeneration phenotype, other polyQ genes [5] | accumulation of polyQ-hHtt at the neuromuscular junctions (NMJs) (hHtt548aa-128Q protein [6]) | distribution of NPY-GFP vesicles along the axons (hHtt548aa-128Q protein [6]) | size of the polyQ-hHtt aggregates along axons (hHtt548aa-128Q protein [6]) | vesicle mean speed (hHtt548aa-128Q protein [7]) | vesicle pause time (hHtt548aa-128Q protein [7]) | mobility of the larvae [8] | interaction with N-terminal fragment lacking polyQ (co-immunoprecipitation) [9] | interaction with Huntingtin N-terminal fragment (co-immunoprecipitation) (GFP-hHtt171aa-136Q) | interaction with first 17 amino acids of Htt (co-immunoprecipitation) [10] | viability and survival of adult flies (polyQ-hHtt) | first step of aggregation (nucleation) [11] | aggregate percentage identified by the GFP signal (GFP-polyQ-hHtt (Q136))
1 | AASSGVSTPGSAGHDIITEQPRS (not fully specified) [pep42, 23 aa peptide contained in pep4, positions 480 to 502 of wild-type hHtt; tested Myc-, Cherry- or GFP-tagged] | no longer forms aggregates | confirmed by quantification | absence of aggregates | normal eyes | Only flies expressing polyQ-hHtt (67aa or 548aa) have normal eyes | non-accumulation of polyQ-hHtt at the NMJs | better distribution of the vesicles along the axons | reduction in the size of the polyQ-hHtt aggregates | rescues | rescues | completely rescued | this interaction does not require the presence of the polyQ domain | interacts directly with the N-terminal fragment of Huntingtin | successfully repeated | capable of rescuing | interferes with the first step of aggregation | –
2 | AASSGVSTPGSAGHDIITEQPRSGGYGRKKRRQRRR (Pep42-TAT) [fusion peptide of Pep42 and TAT with 2 glycines inserted between] | – | – | – | – | – | – | – | – | – | – | – | – | – | – | – | – | decreases significantly; also recorded: protective activity of the fusion peptide is conserved
3 | B1 | proved to be active; also recorded: inhibiting effect of polyQ-hHtt aggregation | confirmed by quantification | absence of aggregates | – | – | – | – | – | – | – | – | – | – | – | – | – | –
